Reference: article PMC7545998, “A snake toxin as a theranostic agent for the type 2 vasopressin receptor” (Theranostics, 2020)

Tests used:
[1] = test system: Sprague-Dawley rats; assay: Diuresis and urine osmolality with daily i.p. injection of 3 nmol/kg for 4 days; type: in vivo, rat; details: daily i.p. 3 nmol/kg; for Diuresis Average / Excretion Average / Osmolarity Average: N=5
Experimental: We injected this dose daily for 4 days and measured urine volume and osmolality.
Sprague-Dawley rats are aged between 6 and 12 weeks, between 237 g and 545 g and were use up to 3 times. […] Urine was collected at various times, and centrifuged for 30 min at 20,800 g. Urine osmolality was determined with an osmometer (Knauer, Berlin, Germany). For the pharmacokinetic experiments, a catheter was implanted in the rat jugular vein five days before the experiment. Blood samples of 400 μl were taken at various times under heparin conditions. Blood was centrifuged at 2000 g for 5 min at 4 °C and plasma was frozen at -20 °C.

[2] = test system: porcine kidney epithelial cells LLC-pk1; assay: Confocal imaging of endogenous V2R in LLC-pk1 cells; type: cell-based; details: 3.4 µM, 30-min pre-incubation
Experimental: In cells endogenously expressing V2R, such as porcine kidney epithelial cells LLC-pk1, labeling of V2R with AFDye-488-MQ1 and Cy5.5-MQ1 (100 nM) was performed with either fresh or PFA-fixed cells (Figures 7A and B). […] In the pathophysiological context, three renal cancer cell lines (CAKI-2, ACHN and A498 [38]) known to express V2R were tested. […] The presence of V2R, at the cell membrane level, fluctuated as a function of cell density and the number of cell divisions, whatever the cell line used. […] To our knowledge, this is the first specific ligand labeling of V2R in non-permeabilized cancer cells.
Freshly dissociated CHO, LLC-PK1 or renal cancer cell lines expressing vasopressin receptors were seeded on 12-mm glass coverslips pre-coated with poly-ornithine, cultured for 48 h before incubation in DMEM, 0.2 mg/mL BSA, 25 mM HEPES, pH 7.4 for 1 h at 12°C or 30 min at 22 °C with fluorescent analogues in the absence or presence of non-fluorescent ligands (30-min pre-incubation). After 3 washes with cold PBS, the cells were finally fixed in 4% PFA overnight at 4 °C and mounted with Mowiol. The fluorescent cells were imaged using a Zeiss LSM510 Meta confocal microscope equipped with a ×63 (NA 1.4) oil immersion objective. For excitation, available laser rays were 488 and 633 nm and emission signals were collected in multitracking mode with appropriate band pass filters. […]

[3] = test system: 156 other GPCRs (including V1aR, V1bR and OTR); details: at µM concentrations; cited from earlier work
Description: Named mambaquaretin (MQ1), this peptide was isolated from mamba snake venom.

mambaquaretin [MQ1]
half-life of diuresis decrease ([1]; day 1): 1.6 h
Diuresis Average ([1]; day 1, 24-h period): 6.3 mL/h/kg
Excretion Average ([1]; day 1, 24-h period): 1919 µOsm/h/kg
Osmolarity Average ([1]; day 1, 24-h period): 328 mOsm/kg H2O
half-life of diuresis decrease ([1]; day 2): 1.3 h
Diuresis Average ([1]; day 2, 24-h period): 5.9 mL/h/kg
Excretion Average ([1]; day 2, 24-h period): 1820 µOsm/h/kg
Osmolarity Average ([1]; day 2, 24-h period): 317 mOsm/kg H2O
half-life of diuresis decrease ([1]; day 3): 1.3 h
Diuresis Average ([1]; day 3, 24-h period): 6.00 mL/h/kg
Excretion Average ([1]; day 3, 24-h period): 1805 µOsm/h/kg
Osmolarity Average ([1]; day 3, 24-h period): 313 mOsm/kg H2O
half-life of diuresis decrease ([1]; day 4): 1.6 h
Diuresis Average ([1]; day 4, 24-h period): 5.7 mL/h/kg
Excretion Average ([1]; day 4, 24-h period): 1940 µOsm/h/kg
Osmolarity Average ([1]; day 4, 24-h period): 326 mOsm/kg H2O
effect on labeling by AFDye-488-MQ1 and Cy5.5-MQ1 [2]: inhibited the labeling
affinity for 156 other GPCRs (including V1aR, V1bR and OTR) [3]: no affinity
